This note sets out measurements from US20170189444A1, “POLYMERIC COMPOSITIONS AND RELATED SYSTEMS AND METHODS FOR REGULATING BIOLOGICAL HYDROGELS” (CALIFORNIA INSTITUTE OF TECHNOLOGY, priority 2016, published 2017).

The test system of test [1] is colonic mucus hydrogel. In words: Ex vivo polymer-induced compression of washed colonic mucus hydrogel (1 μm microparticle method). As to conditions: 500 mM acetate. More on the design: species or system mice. From the text: Each mouse was euthanized; the colon was removed and immediately flushed gently with ice-cold 1× PBS, and placed ˜1 cm long segments of the mid-colon in ice-cold PBS. […] The hydrogel thickness was detected through imaging of the washed tissue. […] This ensured that the microparticles deposited onto the mucus hydrogel surface. both the epithelium and the deposited microparticles were simultaneously imaged using confocal or two-photon reflectance microscopy. After measuring the initial washed mucus thickness, ˜0.2-2mL of the test polymer solution was gently deposited onto the exposed luminal surface and then collected the same 3D stacks at the same xy fields of view To measure the “percent compression”, or the overall percentage change in the thickness, of the colonic mucus after exposure to the polymer solution, the thickness was measured before and after exposure to the solution at the same five xy positions, using the distance between the epithelial surface and the deposited microparticles in the 3D stacks. To calculate the percentage compression, the percentage change in the thickness measured was calculated, as well as the measurement uncertainty (using the optical slice thickness as the experimental uncertainty in the measured thickness), at each of these five xy positions. The percentage compression was calculated as the mean of these five measured values. […]

Test [2] deals with colonic mucus hydrogel. In words: Ex vivo penetration or exclusion of probes and polymers in adherent colonic mucus hydrogel. The arrangement: species or system mice. As to conditions: washed explant, incubated 1-2 h at 4° C.

Consider `CC(=O)O` [acetate], for which, in the test on colonic mucus hydrogel [1], the mucus compression result is recorded as “≈ 10%”. “FITC-dextran [fluorescent dextran 2 MDa]”: the “penetration into or exclusion from adherent mucus hydrogel” value in the test with colonic mucus hydrogel [2] is reported as “penetrate the hydrogel”. As for “Methoxyl polyethylene glycol-FITC [mPEG-FITC 200k]”, the “penetration into or exclusion from adherent mucus hydrogel” value in the test on colonic mucus hydrogel [2] is listed as “Penetration of mucus”; in the test with colonic mucus hydrogel [2] (listed as Fluorescent PEG 200 kDa), “penetrate the hydrogel”.
